Test results taken from PMC12169608, “Peptidomimetic Phenoxymethyl Ketone Warheads as Potent Dual-Mode Inhibitors against SARS-CoV‑2 M^pro and Cathepsin” (Journal of Medicinal Chemistry, 2025).

Experiments:
[1] = biological target: SARS-CoV-2 M^pro (Severe acute respiratory syndrome coronavirus 2, UniProt P0DTD1); test: biochemical; assay type: biochemical
[2] = biological target: T1, human cathepsin L (hCTSL) (Homo sapiens, UniProt P07711); test: hCTSL biochemical assay
T1 construct: purchased R&D Systems

[3] = biological target: human cathepsin B (hCTSB) (Homo sapiens, UniProt P07858); test: hCTSB biochemical assay
[4] = biological target: mouse cathepsin L (mCTSL) (Mus musculus, UniProt P06797); test: mCTSL biochemical assay
[5] = biological target: mouse cathepsin B (mCTSB) (Mus musculus, UniProt P10605); test: mCTSB biochemical assay
[6] = biological target: luciferase-expressing VSV (ΔG) pseudotyped with Spike from SARS-CoV-2; test: microbe, parasite or virus in culture; assay type: cell-based
[7] = system: Vero E6 cells
[8] = pH 7.4
[9] = Kinetic solubility; conditions: PBS buffer pH 7.4
[10] = Mouse hepatocyte stability
[11] = Plasma protein binding (ultra-centrifugation)

T1 sequence (P07711 114-333): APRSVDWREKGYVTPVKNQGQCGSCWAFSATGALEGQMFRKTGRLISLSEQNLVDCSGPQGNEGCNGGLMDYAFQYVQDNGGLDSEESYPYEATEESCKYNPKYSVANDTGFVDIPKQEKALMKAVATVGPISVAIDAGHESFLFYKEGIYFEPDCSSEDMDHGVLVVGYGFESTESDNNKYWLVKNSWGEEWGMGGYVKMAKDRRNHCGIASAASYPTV
Sequence of mouse cathepsin L (mCTSL) (P06797 114-334): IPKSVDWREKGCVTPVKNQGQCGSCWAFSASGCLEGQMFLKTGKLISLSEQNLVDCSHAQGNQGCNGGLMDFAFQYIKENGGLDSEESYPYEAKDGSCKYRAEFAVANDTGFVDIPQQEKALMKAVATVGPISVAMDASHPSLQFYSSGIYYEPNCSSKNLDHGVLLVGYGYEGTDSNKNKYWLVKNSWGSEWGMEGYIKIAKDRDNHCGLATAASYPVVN
Sequence of mouse cathepsin B (mCTSB) (P10605 80-339): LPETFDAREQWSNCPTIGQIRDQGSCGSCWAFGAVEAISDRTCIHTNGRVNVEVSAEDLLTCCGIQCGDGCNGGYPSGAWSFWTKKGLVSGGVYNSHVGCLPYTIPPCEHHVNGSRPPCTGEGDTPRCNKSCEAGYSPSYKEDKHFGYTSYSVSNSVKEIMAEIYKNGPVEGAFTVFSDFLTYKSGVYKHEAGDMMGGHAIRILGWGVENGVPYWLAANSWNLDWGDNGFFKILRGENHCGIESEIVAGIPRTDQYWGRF

For “N-((S)-3-(3-Fluorophenyl)-1-oxo-1-(((S)-2-oxo-5-(5-oxo-1,5-dihydro-4H-1,2,4-triazol-4-yl)-1-(2,3,5,6-tetrafluoro-4-(2-hydroxypropan-2-yl)phenoxy)pentan-3-yl)amino)propan-2-yl)-4-methoxy-1H-indole-2-carboxamide [compound 12]”, the “M^pro biochemical assay pIC50” value [1] was 6.75, the “hCTSL biochemical assay pIC50” value [2] was 9.48 and the “selectivity for hCTSL over M^pro” value [2] was “more than 500 fold”. For the same substance, the “hCTSB biochemical assay pIC50” value [3] was 6.65, the “pIC50 (mouse CTSL)” value [4] was 7.66 and the “pIC50 (mouse CTSB)” value [5] was greater than 8.16. For the same substance, the “Entry reporter assay pEC50” value [6] was 5.14, the “pCC50 (CPE), cytotoxicity” value [7] was less than 5.00 and the logD [8] was 2.88. The kinetic solubility [9] was 5.84 µM, the “CLint (mouse hepatocytes + ritonavir 4:1)” value ([10]; compound/ritonavir 4:1) was 37.1 μL/min/10^6 cells and the “t1/2 (mouse hepatocytes + ritonavir 4:1)” value ([10]; compound/ritonavir 4:1) was 46.7 min. For the same substance, the “CLint (mouse hepatocytes)” value ([10]; without ritonavir) was 76.8 μL/min/10^6 cells, the “t1/2 (mouse hepatocytes)” value ([10]; without ritonavir) was 22.6 min and the “mouse plasma protein binding, fraction bound (Fb)” value [11] was 99.69%. The “mouse plasma protein binding, fraction unbound (Fu)” value [11] was 0.31%.
